Among the data in the supplement of paper PMC11616607 are drug sensitivity score values, retold here.

The structures appear in SMILES notation.

One assay relates to Kuramochi. The assay can be described thus: drug sensitivity score (DSS) from 5-point dose-response viability curve (DSS (area-under-curve based score)); higher = more sensitive (stronger growth inhibition or killing); extreme values may be limits of the assay. The conditions noted are these: exposure time: 72 h; concentration range: 5 concentrations over 10,000-fold range. The gist of the method: (§1)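 Viability of ovarian cancer and normal ovarian cell lines was read by CellTiter-Glo luminescence after 3 days at 37°C and 5% CO2 in 384-well plates holding 1,500 cells per well. Drugs had been dispensed in DMSO or water with an Echo 550 at five concentrations over a 10,000-fold range. Using Breeze software, a drug sensitivity score was assigned per cell line and drug, higher scores meaning more sensitive, and zero means no response.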
`C[C@H]1C[C@@H]2[C@H]([C@@H](O)C[C@@]3(C)[C@H]2CC[C@]3(O)C(=O)CO)[C@@]2(C)C=CC(=O)C=C12` [Methylprednisolone] gave a drug sensitivity score of 0.

In turn, `CO[C@@H]1[C@H](N(C)C(=O)c2ccccc2)C[C@H]2O[C@]1(C)n1c3ccccc3c3c4c(c5c6ccccc6n2c5c31)C(=O)NC4` [Midostaurin] had a drug sensitivity score of 7.2.

`CNC(=O)c1nn(C)c2c1C(C)(C)Cc1cnc(Nc3ccc(N4CCN(C)CC4)cc3)nc1-2` [Milciclib] had a drug sensitivity score of 10.1.

For `CCCCCCCCCCCCCCCCOP(=O)([O-])OCC[N+](C)(C)C` [Miltefosine], the drug sensitivity score was found to be 5.8.

`CO[C@@]12[C@H](COC(N)=O)C3=C(C(=O)C(C)=C(N)C3=O)N1C[C@@H]1N[C@@H]12` [Mitomycin C]: the drug sensitivity score came to 0.

The compound `Clc1ccc(C(c2ccccc2Cl)C(Cl)Cl)cc1` (stereo not given) [Mitotane] yielded a drug sensitivity score of 0.

Compound `O=C1c2c(O)ccc(O)c2C(=O)c2c(NCCNCCO)ccc(NCCNCCO)c21` [Mitoxantrone] had a drug sensitivity score of 3.2.

In the case of `CCS(=O)(=O)Nc1ccc(Oc2ccc(F)cc2F)c(-c2cn(C)c(=O)c3[nH]ccc23)c1` [Mivebresib], the drug sensitivity score turned out to be 22.6.

Compound `Nc1ccccc1NC(=O)c1ccc(CNc2nccc(-c3cccnc3)n2)cc1` [Mocetinostat] returned a drug sensitivity score of 7.

`CCNC(=O)C[C@@H]1N=C(c2ccc(Cl)cc2)c2cc(OC)ccc2-n2c(C)nnc21` [Molibresib] displayed a drug sensitivity score of 9.3.

`N#CCNC(=O)c1ccc(-c2ccnc(Nc3ccc(N4CCOCC4)cc3)n2)cc1` [Momelotinib] returned a drug sensitivity score of 1.

The compound `CC1(C)CNc2cc(NC(=O)c3cccnc3NCc3ccncc3)ccc21` [Motesanib] gave a drug sensitivity score of 2.1.

In the case of `CCCN(CCC)C(=O)C1=Cc2ccc(-c3ccc(C(=O)N4CCCC4)cc3)cc2N=C(N)C1` [Motolimod], the drug sensitivity score came out at 0.3.

Consider `FC(F)(F)c1ccc(/C=C/c2nc(COc3ccc(CCCCn4ccnn4)cc3)co2)cc1` [Mubritinib], for which the drug sensitivity score worked out at 0.6.

`Cc1cc(OCc2nnc(SC3CCCC3)n2-c2cccnc2)ccc1-c1ccc(S(C)(=O)=O)cc1` [NMS-873] had a drug sensitivity score of 6.8.

The compound `COc1ccc(-c2ccc3ncc4c(c3c2)n(-c2ccc(N3CCNCC3)c(C(F)(F)F)c2)c(=O)n4C)cn1` [NVP-BGT226] gave a drug sensitivity score of 10.2.

As for `Cc1ccc(C(=O)Nc2cccc(C(F)(F)F)c2)cc1Nc1nc(-c2cccnc2)nc2c1cnn2C` [NVP-BHG712], the drug sensitivity score came to 2.5.

As to `COc1cc2c(cc1OC(C)C)[C@H](c1ccc(Cl)cc1)N(c1ccc(N(C)C[C@H]3CC[C@H](N4CCN(C)C(=O)C4)CC3)cc1)C(=O)C2` [NVP-CGM097], the drug sensitivity score amounted to 5.5.

Consider `CN[C@@H](C)C(=O)N[C@H](C(=O)N1CCC[C@H]1c1nc(C(=O)c2ccc(F)cc2)cs1)C1CCCCC1` [NVP-LCL161], for which the drug sensitivity score came to 1.9.

The compound `Cn1c(Nc2ccc(C(F)(F)F)cc2)nc2cc(Oc3ccnc(-c4ncc(C(F)(F)F)[nH]4)c3)ccc21` [NVP-RAF265] returned a drug sensitivity score of 0.

`CC(=O)c1cc2c(o1)C(=O)c1ccccc1C2=O` [Napabucasin] yielded a drug sensitivity score of 16.7.

On to `CC1(C)CCC(c2ccc(Cl)cc2)=C(CN2CCN(c3ccc(C(=O)NS(=O)(=O)c4ccc(N[C@H](CCN5CCOCC5)CSc5ccccc5)c(S(=O)(=O)C(F)(F)F)c4)cc3)CC2)C1` [Navitoclax], for which the drug sensitivity score worked out at 0.

With `CN1C(=O)N[C@H](Cc2c[nH]c3c(Cl)cccc23)C1=O` [Necrostatin 2], the drug sensitivity score stood at 0.

Compound `O=c1ncn2nc(Sc3ccc(F)cc3F)ccc2c1-c1c(Cl)cccc1Cl` [Neflamapimod] gave a drug sensitivity score of 2.

As to `COc1nc(N)nc2c1ncn2[C@@H]1O[C@H](CO)[C@@H](O)[C@@H]1O` [Nelarabine], the drug sensitivity score was 0.

With `CCOc1cc2ncc(C#N)c(Nc3ccc(OCc4ccccn4)c(Cl)c3)c2cc1NC(=O)/C=C/CN(C)C` [Neratinib], the drug sensitivity score stood at 0.4.

Compound `Cc1cn(-c2cc(NC(=O)c3ccc(C)c(Nc4nccc(-c5cccnc5)n4)c3)cc(C(F)(F)F)c2)cn1` [Nilotinib] showed a drug sensitivity score of 0.

The compound `CC1(C)NC(=O)N(c2ccc([N+](=O)[O-])c(C(F)(F)F)c2)C1=O` [Nilutamide] registered a drug sensitivity score of 1.6.

As for `COC(=O)c1ccc2c(c1)NC(=O)/C2=C(\Nc1ccc(N(C)C(=O)CN2CCN(C)CC2)cc1)c1ccccc1` [Nintedanib], the drug sensitivity score worked out at 4.2.

The compound `NC(=O)c1cccc2cn(-c3ccc([C@@H]4CCCNC4)cc3)nc12` [Niraparib] gave a drug sensitivity score of 1.

The next assay has as its system OV90. The assay is described as above. The conditions noted are these: exposure time: 72 h; concentration range: 5 concentrations over 10,000-fold range. The gist of the method:
as §1
On to `C[C@H]1C[C@@H]2[C@H]([C@@H](O)C[C@@]3(C)[C@H]2CC[C@]3(O)C(=O)CO)[C@@]2(C)C=CC(=O)C=C12` [Methylprednisolone], for which the drug sensitivity score is 0.

`CO[C@@H]1[C@H](N(C)C(=O)c2ccccc2)C[C@H]2O[C@]1(C)n1c3ccccc3c3c4c(c5c6ccccc6n2c5c31)C(=O)NC4` [Midostaurin] showed a drug sensitivity score of 12.7.

`CNC(=O)c1nn(C)c2c1C(C)(C)Cc1cnc(Nc3ccc(N4CCN(C)CC4)cc3)nc1-2` [Milciclib]: the drug sensitivity score came to 8.1.

`CCCCCCCCCCCCCCCCOP(=O)([O-])OCC[N+](C)(C)C` [Miltefosine] registered a drug sensitivity score of 4.1.

`CO[C@@]12[C@H](COC(N)=O)C3=C(C(=O)C(C)=C(N)C3=O)N1C[C@@H]1N[C@@H]12` [Mitomycin C] yielded a drug sensitivity score of 0.9.

Take `Clc1ccc(C(c2ccccc2Cl)C(Cl)Cl)cc1` (stereo not given) [Mitotane]: the drug sensitivity score is 0.5.

With `O=C1c2c(O)ccc(O)c2C(=O)c2c(NCCNCCO)ccc(NCCNCCO)c21` [Mitoxantrone], the drug sensitivity score stood at 5.9.

`CCS(=O)(=O)Nc1ccc(Oc2ccc(F)cc2F)c(-c2cn(C)c(=O)c3[nH]ccc23)c1` [Mivebresib] registered a drug sensitivity score of 22.1.

For `Nc1ccccc1NC(=O)c1ccc(CNc2nccc(-c3cccnc3)n2)cc1` [Mocetinostat], the drug sensitivity score was found to be 7.5.

On to `CCNC(=O)C[C@@H]1N=C(c2ccc(Cl)cc2)c2cc(OC)ccc2-n2c(C)nnc21` [Molibresib], for which the drug sensitivity score is 8.4.

For `N#CCNC(=O)c1ccc(-c2ccnc(Nc3ccc(N4CCOCC4)cc3)n2)cc1` [Momelotinib], the drug sensitivity score was found to be 2.6.

As for `CC1(C)CNc2cc(NC(=O)c3cccnc3NCc3ccncc3)ccc21` [Motesanib], the drug sensitivity score was 0.3.

Take `CCCN(CCC)C(=O)C1=Cc2ccc(-c3ccc(C(=O)N4CCCC4)cc3)cc2N=C(N)C1` [Motolimod]: the drug sensitivity score was 1.9.

`FC(F)(F)c1ccc(/C=C/c2nc(COc3ccc(CCCCn4ccnn4)cc3)co2)cc1` [Mubritinib]: the drug sensitivity score was 5.9.

The compound `Cc1cc(OCc2nnc(SC3CCCC3)n2-c2cccnc2)ccc1-c1ccc(S(C)(=O)=O)cc1` [NMS-873] came in with a drug sensitivity score of 12.4.
